Source: patent publication US11092596B2, “Material and method to screen proteasome stimulators” (Purdue Research Foundation, priority 2017, dated 2021)

What was measured:
[1] = target: T1, chymotrypsin-like activity of the 20S CP (Homo sapiens, UniProt P28074); experiment: Kinetic assay, CT-L FRET reporter hydrolysis by purified 20S CP; assay type: biochemical; conditions: CT-L FRET reporter; for EC50: dose response 0.78125-400 μM, triplicate, read-out: EC50 (concentration of half of the maximum stimulation) for 20S CP stimulation
T1 construct: 5 μL purified 20S proteasome (90 nM in Tris-HCl) was added to the control and test wells
Procedure: (§1) Plate preparation for the kinetic assay was performed similarly for all assays. All 96-well plates contained the following in triplicate: reporter background, containing reporter only, and control wells, containing reporter and purified 20S CP. It was determined that each well will contain a total volume of 50 μL. To each well was added 40 μL of the coumarin or FRET reporters (in Tris-HCl, 50 mM, pH 7.7). To the reporter background wells was added 7.5 μL Tris-HCl and 2.5 μL of the solvent in which the compound of interest was dissolved or diluted. Similarly, to the control wells was added 2.5 μL Tris-HCl and 2.5 μL of the solvent in which the compound of interest was dissolved or diluted. To the test wells was added 2.5 μL Tris-HCl and 2.5 μL of the compound of interest at a predetermined concentration. Immediately prior to running the assay on the Synergy 4 Plate Reader, 5 μL purified 20S proteasome (90 nM in Tris-HCl) was added to the control and test wells.
(§2) The Synergy 4 Plate Reader was set to heat the plate at 37° C. and read fluorescence every 2 min over a 40 min period. The excitation and emission wavelengths were set according to the reporter. For the FRET reporter, the excitation and emission wavelengths were set to 335 nm and 493 nm, respectively, corresponding to the excitation and emission wavelengths of the Edans fluorophore. For the coumarin reporter, the excitation and emission wavelengths were set to 380 nm and 460 nm, respectively.
(§3) AM-404 was used as a positive control compound to test the dose-response screening capabilities of the CT-L FRET reporter. The following concentrations of AM-404 were tested in triplicate: 50, 25, and 12.5 μM. To each well was added 40 μL 20 μM CT-L FRET (in Tris-HCl, 50 mM, pH 7.7). To the reporter background wells was added 5 μL Tris-HCl and 5 μL 1:1 Tris-HCl:DMSO. Similarly, to the control wells was added 5 μL 1:1 Tris-HCl:DMSO. To the 50 μM AM-404 test wells was added 2.5 μL Tris-HCl and 2.5 μL 1000 μM AM-404 in DMSO. To the 25 μM AM-404 test wells was added 2.5 μL Tris-HCl and 2.5 μL 500 μM AM-404 in DMSO. To the 12.5 μM AM-404 test wells was added 2.5 μL Tris-HCl and 2.5 μL 250 μM AM-404 in DMSO. Immediately prior to running the assay on the Synergy 4 Plate Reader, 5 μL purified 20S proteasome (90 nM in Tris-HCl) was added to the control and test wells. The assay was performed using the Synergy 4 plate reader as described for the general screening kinetic assay procedure.
as §3, with “Fenofibrate was” for “AM-404 was”, “a negative” for “a positive”, “of fenofibrate” for “of AM-404”, “μM fenofibrate” for “μM AM-404”, “procedure. […]” for “procedure.”

[2] = target: trypsin-like activity of the 20S CP (Homo sapiens, UniProt Q99436); experiment: Kinetic assay, T-L FRET reporter hydrolysis by purified 20S CP; assay type: biochemical; conditions: 25 μM compound, T-L FRET reporter; basal level set to 100%
Procedure: as §1
as §2, with “For the coumarin reporter, the excitation and emission wavelengths were set to 380 nm and 460 nm, respectively.” left out
Stimulation of the 20S proteasome with SDS was determined using both the coumarin and FRET reporters for the chymotrypsin-like and trypsin-like activities of the 20S CP. […] Immediately prior to running the assay on the Synergy 4 Plate Reader, 5 μL purified 20S proteasome (90 nM in Tris-HCl) was added to the control and test wells. The assay was performed using the Synergy 4 plate reader as described for the general screening kinetic assay procedure. […]
To each well was added 40 μL 20 μM T-L FRET reporter (in Tris-HCl, 50 mM, pH 7.7). […] Immediately prior to running the assay on the Synergy 4 Plate Reader, 5 μL purified 20S proteasome (90 nM in Tris-HCl) was added to the control and test wells.

Compound	EC50 [1]	20S CP stimulation over basal level (dose response curve) ([1]; maximum of dose response curve)	stimulation of the trypsin-like activity of the 20S CP [2]
C[C@H]1[C@H](C)CC[C@]2(C(=O)O)CC[C@]3(C)C(=CC[C@@H]4[C@@]5(C)CC[C@H](O)C(C)(C)[C@@H]5CC[C@]43C)[C@H]12 [Compound 2, ursolic acid]	14 µM	100%	234%
Cc1c(C)c2c(c(C)c1OC(=O)CCC(=O)O)CC[C@@](C)(CCC[C@H](C)CCC[C@H](C)CCCC(C)C)O2 [Compound 3, vitamin E succinate]	7 µM	–	146%
